Measurements from patent EP0804445B1, “METALLOCENIC […] DERIVATIVES, METHODS FOR THEIR PREPARATION AND PHARMACEUTICAL COMPOSITIONS CONTAINING SAME” (Modelisation et Mise au Point de Molecules Medicanales - …, priority 1994, dated 1996).

Legend:
lignée MCF-7 ATCC HTB = assay: MTT cytotoxicity test (cell viability); assay type: cell-based, humaines; conditions: MCF7 ATCC cells; 5 days incubation with compound; MTT readout at 550 nm; calculated from points of Figures 1A, 1B and 2 between 5.10^-7 and 10^-5 moles/l; read-out: IC50 (µmole) MCF7 ATCC
Source text: (§1) L'évaluation de la cytotoxicité des isomères "trans" et "cis" du 1-[4-(2-diméthylaminoéthoxy) phényl]-1-(4-hydroxyphényl)-2-ferrocényl-1-butène a fait l'objet de tests sur des lignées de cellules humaines dérivées d'une effusion pleurale d'un adénocarcinome mammaire (lignée MCF-7 ATCC HTB) ainsi que de l'un de ses variants (lignée MCF-7P).
(§2) Ces cellules ont été préalablement cultivées dans du milieu Dulbecco MEM additionné de 10% de sérum de veau foetal et en atmosphère humide (90% d'humidité relative) comprenant 5% de CO2. En phase exponentielle de croissance, ces cellules ont été trypsinées et repiquées dans des plaques de 24 puits de 1 ml à raison de 2.10^5 cellules par puits.
(§3) Après 3 jours d'incubation, les composés à tester ont été ajoutés aux doses appropriées et les plaques ont été mises à incuber pendant 5 jours.
(§4) A l'issue de cette incubation, la viabilité cellulaire des cultures a été déterminée à l'aide du test dit "MTT" consistant à ajouter dans chaque puits 20 µl d'une solution contenant 5 mg de bromure de (diméthyl-4,5-thiazol-2-yl)diphényl-2,5-tétrazolium (MTT) dans 1 ml de tampon PBS, et à laisser incuber les plaques pendant 1 heure à 37°C dans des conditions atmosphériques identiques à celles définies ci-dessus. Le MTT est métabolisé dans les cellules vivantes en un composé bleu insoluble (formazan).
(§5) A l'issue de cette incubation, les puits sont lavés à l'aide de PBS pour éliminer le MTT et les cristaux résiduels de formazan sont repris dans 1 ml de DMSO. La concentration en formazan pour chaque puits est lue par photométrie à une longueur d'onde de 550 nm et comparée à un témoin correspondant à du milieu incubé en présence de MTT mais en l'absence de cellules.

lignée MCF-7P = assay: MTT cytotoxicity test (cell viability); assay type: cell-based, humaines; conditions: MCF7-P variant cells; 5 days incubation with compound; MTT readout at 550 nm; calculated from points of Figures 1A, 1B and 2 between 5.10^-7 and 10^-5 moles/l; read-out: IC50 (µmole) MCF7-P
Source text: as §1, §2, §3, §4, §5

Compound | IC50 (lignée MCF-7 ATCC HTB) [µM] | IC50 (lignée MCF-7P) [µM]
CCC(=C(c1ccc(O)cc1)c1ccc(OCCN(C)C)cc1)[c-]1cccc1.[Fe+2].c1cc[cH-]c1 [Dérivé "cis", 1-[4-(2-diméthylaminoéthoxy)phényl]-1-(4-hydroxyphényl)-2-ferrocényl-1-butène] | 3.4 | 5.6
CCC(=C(c1ccc(O)cc1)c1ccc(OCCN(C)C)cc1)[c-]1cccc1.[Fe+2].c1cc[cH-]c1 [Dérivé "trans", 1-[4-(2-diméthylaminoéthoxy)phényl]-1-(4-hydroxyphényl)-2-ferrocényl-1-butène] | 4.9 | 2
